# In US20030130799A1, “Structure/properties correlation with membrane affinity profile” (priority 2001, published 2003):
# Like-named read-outs stand apart in the source and are kept apart here.
# Assays:
# plasma proteins [1] = assay: Prediction of protein binding from IAM membrane affinity standard curve; design: species or system human; details: Table 3; predicted using IAM k′ data (FIG. 20)
# [2] = Prediction of volume of distribution from IAM membrane affinity standard curve; details: Table 2; predicted using IAM k′ data (FIG. 19)
# [3] = cited from earlier work; for Vd Observed: Table 2, 70-kg patient assumed; for Volume of Distribution (Ref.) category in brackets: class of the reference value
# plasma proteins [4] = details: cited from earlier work; for Protein Binding Observed: Table 3
# [5] = Prediction of clearance from IAM membrane affinity standard curve; design: species or system human; details: Table 4; predicted using IAM k′ data
# [6] = IAM chromatography membrane affinity (κ′) on esterIAM.PS C10/C3 column; details: for Log PS (log κ′ on esterIAM.PS C10/C3): 15% acetonitrile in 0.01M PBS buffer (pH 7.4) mobile phase
# [7] = IAM chromatography membrane affinity (κ′) on esterIAM.PE C10/C3 column; details: for LOG PE (log κ′ on esterIAM.PE C10/C3): 15% acetonitrile in 0.01M PBS buffer (pH 7.4) mobile phase
# [8] = cited from earlier work; for Clearance (Ref.): Table 5, Study 1, category; for total body clearance Observed: Table 4
# [9] = column volumes of mobile phase needed to elute
# [10] = known ADME properties of the parent compound
structure (smiles),measurement,setting,value
CCCN(CCC)CCc1cccc2c1CC(=O)N2 [Ropinirole],Protein Binding Predicted,plasma proteins [1],40-90
same,Vd Predicted,[2],VERY HIGH (>250 L) (VERY HIGH (>250 L))
same,Vd Observed,[3],525 L
same,Protein Binding Observed,plasma proteins [4],68
same,total body clearance Predicted,[5],HIGH > 0.327 (HIGH > 0.327)
COc1cc(Cc2cnc(N)nc2N)cc(OC)c1OC [trimethoprim],κ′ on the esterIAM.PS C10/C3 column,[6]; [9],10
same,affinity for the esterIAM.PS C10/C3 column compared to the esterIAM.PE column,[6]; ratio of κ′ PS / κ′ PE,~5 times
same,κ′ on the esterIAM.PE C10/C3 column,[7]; [9],2
CC(C)(C)NCC(O)c1cc(O)cc(O)c1 (stereo not shown) [terbutaline],Volume of Distribution (L) (Ref.),"[3]; Table 6, Study 2",126 L
same,% Protein Binding (Ref.),"plasma proteins [4]; Table 6, Study 2",20%
Cc1cccc(C)c1OCC(C)N (stereo not shown) [mexiletine],Volume of Distribution (L) (Ref.),"[3]; Table 6, Study 2",343 L
same,% Protein Binding (Ref.),"plasma proteins [4]; Table 6, Study 2",63%
CNCCC(Oc1ccc(C(F)(F)F)cc1)c1ccccc1 (stereo not shown) [fluoxetine],Volume of Distribution (L) (Ref.),"[3]; Table 6, Study 2",2450 L
same,% Protein Binding (Ref.),"plasma proteins [4]; Table 6, Study 2",94%
Nc1nc2c(ncn2COCCO)c(=O)[nH]1 [Acyclovir],LOG PE (log κ′ on esterIAM.PE C10/C3),[7],−1.17
O=C1Nc2ccc(Cl)cc2C(c2ccccc2Cl)=NC1O (stereo not shown) [lorazepam],Volume of Distribution (L) (Ref.),"[3]; Table 5, Study 1",91 L
same,Volume of Distribution (Ref.) category in brackets,"[3]; Table 5, Study 1",(high) (“high” (70-250 L))
same,Clearance (Ref.),[8],low
COc1ccc([C@@H]2Sc3ccccc3N(CCN(C)C)C(=O)[C@@H]2OC(C)=O)cc1 [Diltiazem],Log PS (log κ′ on esterIAM.PS C10/C3),[6],2.54
same,Vd Observed,[3],217 L
same,Protein Binding Observed,plasma proteins [4],78
same,total body clearance Predicted,[5],HIGH > 0.327 (HIGH > 0.327)
same,LOG PE (log κ′ on esterIAM.PE C10/C3),[7],1.87
same,total body clearance Observed,[8],0.84
CC(CCc1ccccc1)NCC(O)c1ccc(O)c(C(N)=O)c1 (stereo not shown) [labetalol],% Protein Binding (Ref.),"plasma proteins [4]; Table 6, Study 2",50%
O=C1CN=C(c2ccccc2)c2cc([N+](=O)[O-])ccc2N1 [nitrazepam],Volume of Distribution (L) (Ref.),"[3]; Table 5, Study 1",133 L
same,Volume of Distribution (Ref.) category in brackets,"[3]; Table 5, Study 1",(high) (“high” (70-250 L))
same,Clearance (Ref.),[8],low
Fc1ccc([C@@H]2CCNC[C@H]2COc2ccc3c(c2)OCO3)cc1 [Paroxetine],Protein Binding Predicted,plasma proteins [1],Greater than 90
same,Log PS (log κ′ on esterIAM.PS C10/C3),[6],3.37
same,Vd Observed,[3],1190 L
same,Protein Binding Observed,plasma proteins [4],95
same,total body clearance Predicted,[5],HIGH > 0.327 (HIGH > 0.327)
same,LOG PE (log κ′ on esterIAM.PE C10/C3),[7],2.33
same,total body clearance Observed,[8],0.602
COCCc1ccc(OCC(O)CNC(C)C)cc1 (stereo not shown) [metoprolol],Volume of Distribution (L) (Ref.),"[3]; Table 6, Study 2",294 L
O=C1CN=C(c2ccccc2Cl)c2cc([N+](=O)[O-])ccc2N1 [clonazepam],Volume of Distribution (L) (Ref.),"[3]; Table 5, Study 1",210 L
same,Vd,[3]; [10],224 L
same,% Protein Binding (Ref.),"plasma proteins [4]; Table 5, Study 1",86%
same,Protein binding,plasma proteins [4]; [10],86%
same,Clearance (Ref.),[8],low
same,CL,[8]; [10],0.109 L/min
CC(C)(C)NCC(O)COc1cccc2c1CC(O)C(O)C2 (stereo not shown) [nadolol],Volume of Distribution (L) (Ref.),"[3]; Table 6, Study 2",133 L
same,% Protein Binding (Ref.),"plasma proteins [4]; Table 6, Study 2",20%
CNC(=C[N+](=O)[O-])NCCSCc1ccc(CN(C)C)o1 [Ranitidine],Log PS (log κ′ on esterIAM.PS C10/C3),[6],0.83
same,Vd Observed,[3],91 L
same,Protein Binding Observed,plasma proteins [4],15
same,LOG PE (log κ′ on esterIAM.PE C10/C3),[7],0.15
CC(C)NCC(O)COc1cccc2ccccc12 (stereo not shown) [propranolol],Volume of Distribution (L) (Ref.),"[3]; Table 6, Study 2",301 L
CN1C(=O)CN=C(c2ccccc2F)c2cc([N+](=O)[O-])ccc21 [flunitrazepam],% Protein Binding (Ref.),"plasma proteins [4]; Table 5, Study 1",77%
CCCCC1C(=O)N(c2ccccc2)N(c2ccccc2)C1=O [phenylbutazone],Volume of Distribution (L) (Ref.),"[3]; Table 6, Study 2",7 L
Nc1nnc(-c2cccc(Cl)c2Cl)c(N)n1 [Lamotrigine],Log PS (log κ′ on esterIAM.PS C10/C3),[6],0.96
same,Vd Observed,[3],91 L
same,Protein Binding Observed,plasma proteins [4],55
same,total body clearance Predicted,[5],LOW < 0.327 (LOW < 0.327)
O=C(NCC1CCCCN1)c1cc(OCC(F)(F)F)ccc1OCC(F)(F)F (stereo not shown) [flucainide],Volume of Distribution (L) (Ref.),"[3]; Table 6, Study 2",343 L
same,% Protein Binding (Ref.),"plasma proteins [4]; Table 6, Study 2",61%
CCCC(=O)Nc1ccc(OCC(O)CNC(C)C)c(C(C)=O)c1 (stereo not shown) [acebutolol],Volume of Distribution (L) (Ref.),"[3]; Table 6, Study 2",84 L
